In patent US4034102A, “4-Substituted-1,3-dithiolan-2-ylidene malonates and pharmaceutical compositions containing the same” (Nihon Nohyaku Co. Ltd., priority 1975, dated 1977):

Assays:
[1] = test system: CCl4-induced liver damage; experiment: Protection against CCl4-induced Hepatotoxicity; type: in vivo, mice (four-week-old male, dd strain); settings: 6 h before CCl4 (0.05 ml/kg oral), 24 h after CCl4, average of 5 to 6 mice; for Liver damage index: 250 mg/kg oral in olive oil, score 0 normal, 2 slightly recognized, 4 clearly observable damage, 6 heavy damage, CCl4 alone 5.2, control 0; for p-GPT (plasma glutamic-pyruvic transaminase activity): 250 mg/kg oral, values over 1,000 regarded as 1,000, CCl4 alone >1000, control 35
From the text: Carbon tetrachloride (CCl4) administration induces centrilobular necrosis of the liver associated with loss of diphosphopyridine nucleotide, hepatic glycogen, coenzyme A and increase in neutral fat. Release of several enzymes from the hepatocytes, and increase of enzyme activities in the plasma are recognized as the result of the damage of the liver. A suitable means for evaluating the degree of damage induced by CCl4 or the degree of protection afforded by drugs is to study the plasma glutamic-pyruvic transaminase (p-GPT) activity.
Methods: The test compounds were dissolved or suspended in olive oil and administered orally at the dose of 250 mg/kg to the mice (Four-week-old male mice-dd strain). After 6 hours, CCl4 was administered orally (0.05 ml/kg as olive oil solution). Animals were killed 24 hours after CCl4 administration, and the liver was grossly observed. The plasma was obtained by centrifugation. Activities of p-GPT were determined by the method of Reitman and Frankels and expressed in Karmen units. Score for liver damage index was as follows:
Each figure indicates average of 5 to 6 mice. Values of p-GPT over 1,000 Karmen unit regarded as 1,000 for calculation of average for convenience.

[2] = in vivo; settings: mouse, oral, male mice, read-out: acute oral toxicity LD50
Experimental: For example, the LD50 value of the compound 12 is more than 3,000 mg/kg. Further, these compounds have no detrimental effects on test animals administered therewith, so far as the doses thereof are within an ordinary administration range.

COc1ccc(-c2cc(=S)ss2)cc1 [Anethol trithion, reference compound]
Liver damage index [1]: 1.6
p-GPT (plasma glutamic-pyruvic transaminase activity) [1]: 58 Karmen units

CCOC(=O)C(C(=O)OCC)=C1SCC(OC(=O)CCl)S1 (stereo not shown) [Compound 1]
Liver damage index [1]: 1.0
p-GPT (plasma glutamic-pyruvic transaminase activity) [1]: 102 Karmen units

CCOC(=O)C(C(=O)OCC)=C1SCC(OC(=O)CCC(=O)O)S1 (stereo not shown) [Compound 2, Succinic acid semi-ester of diethyl 4-hydroxy-1,3-dithiolan-2-ylidene malonate]
Liver damage index [1]: 0.6
p-GPT (plasma glutamic-pyruvic transaminase activity) [1]: 43 Karmen units

CCOC(=O)C(C(=O)OCC)=C1SCC(OC(=O)CCCC(=O)O)S1 (stereo not shown) [Compound 3]
Liver damage index [1]: 1.2
p-GPT (plasma glutamic-pyruvic transaminase activity) [1]: 108 Karmen units

CCOC(=O)C(C(=O)OCC)=C1SCC(OC(=O)CCC(=O)O)S1 (stereo not shown) [Compound 4]
Liver damage index [1]: 0.2
p-GPT (plasma glutamic-pyruvic transaminase activity) [1]: 45 Karmen units

CCOC(=O)C(C(=O)OCC)=C1SCC(OC(=O)CN(CC)CC)S1 (stereo not shown) [Compound 5, Diethyl 4-diethylaminoacetoxy-1,3-dithiolan-2-ylidene malonate]
Liver damage index [1]: 1.6
p-GPT (plasma glutamic-pyruvic transaminase activity) [1]: 232 Karmen units

CCCN(CCC)CC(=O)OC1CSC(=C(C(=O)OCC)C(=O)OCC)S1 (stereo not shown) [Compound 6]
Liver damage index [1]: 1.6
p-GPT (plasma glutamic-pyruvic transaminase activity) [1]: 250 Karmen units

CCOC(=O)C(C(=O)OCC)=C1SCC(OC(=O)C2=C(C(=O)O)CCCC2)S1 (stereo not shown) [Compound 7]
Liver damage index [1]: 2.2
p-GPT (plasma glutamic-pyruvic transaminase activity) [1]: 382 Karmen units

CCCOC(=O)C(C(=O)OCCC)=C1SCC(OC(=O)CCC(=O)O)S1 (stereo not shown) [Compound 8, Succinic acid semi-ester of di-n-propyl 4-hydroxy-1,3-dithiolan-2-ylidene malonate]
Liver damage index [1]: 0.6
p-GPT (plasma glutamic-pyruvic transaminase activity) [1]: 77 Karmen units

CC(C)OC(=O)C(C(=O)OC(C)C)=C1SCC(OC(=O)CCl)S1 (stereo not shown) [Compound 9, diisopropyl 4-chloroacetoxy-1,3-dithiolan-2-ylidene malonate]
Liver damage index [1]: 0.6
p-GPT (plasma glutamic-pyruvic transaminase activity) [1]: 65 Karmen units

CC(C)OC(=O)C(C(=O)OC(C)C)=C1SCC(OC(=O)c2ccccc2)S1 (stereo not shown) [Compound 10]
Liver damage index [1]: 1.7
p-GPT (plasma glutamic-pyruvic transaminase activity) [1]: 520 Karmen units

CC(C)OC(=O)C(C(=O)OC(C)C)=C1SCC(OC(=O)CCC(=O)O)S1 (stereo not shown) [Compound 11, succinic acid semi-ester of diisopropyl 4-hydroxy-1,3-dithiolan-2-ylidene malonate]
Liver damage index [1]: 0.2
p-GPT (plasma glutamic-pyruvic transaminase activity) [1]: 54 Karmen units

CC(C)OC(=O)C(C(=O)OC(C)C)=C1SCC(OC(=O)CCC(=O)O)S1 (stereo not shown) [Compound 12]
Liver damage index [1]: 0.2
p-GPT (plasma glutamic-pyruvic transaminase activity) [1]: 33 Karmen units
LD50 [2]: > 3000 mg/kg

CC(C)OC(=O)C(C(=O)OC(C)C)=C1SCC(OC(=O)CCC(=O)O)S1 (stereo not shown) [Compound 13]
Liver damage index [1]: 0.6
p-GPT (plasma glutamic-pyruvic transaminase activity) [1]: 44 Karmen units

CC(C)OC(=O)C(C(=O)OC(C)C)=C1SCC(OC(=O)CCCC(=O)O)S1 (stereo not shown) [Compound 14]
Liver damage index [1]: 0.6
p-GPT (plasma glutamic-pyruvic transaminase activity) [1]: 102 Karmen units

CC(C)OC(=O)C(C(=O)OC(C)C)=C1SCC(OC(=O)/C=C\C(=O)O)S1 (stereo not shown) [Compound 15]
Liver damage index [1]: 0.4
p-GPT (plasma glutamic-pyruvic transaminase activity) [1]: 62 Karmen units

CC(C)OC(=O)C(C(=O)OC(C)C)=C1SCC(OC(=O)c2ccccc2C(=O)O)S1 (stereo not shown) [Compound 16, phthalic acid semi-ester of diisopropyl 4-hydroxy-1,3-dithiolan-2-ylidene malonate]
Liver damage index [1]: 3.2
p-GPT (plasma glutamic-pyruvic transaminase activity) [1]: 482 Karmen units

CC(C)OC(=O)C(C(=O)OC(C)C)=C1SCC(OC(=O)C2=C(C(=O)O)CCCC2)S1 (stereo not shown) [Compound 17]
Liver damage index [1]: 1.8
p-GPT (plasma glutamic-pyruvic transaminase activity) [1]: 286 Karmen units

CC(C)OC(=O)C(C(=O)OC(C)C)=C1SCC(OC(=O)C2CC=CCC2C(=O)O)S1 (stereo not shown) [Compound 18]
Liver damage index [1]: 2.6
p-GPT (plasma glutamic-pyruvic transaminase activity) [1]: 565 Karmen units

CCN(CC)CC(=O)OC1CSC(=C(C(=O)OC(C)C)C(=O)OC(C)C)S1 (stereo not shown) [Compound 19, diisopropyl 4-diethylaminoacetoxy-1,3-dithiolan-2-ylidene malonate]
Liver damage index [1]: 1.2
p-GPT (plasma glutamic-pyruvic transaminase activity) [1]: 288 Karmen units

CC(C)OC(=O)C(C(=O)OC(C)C)=C1SCC(OC(=O)CN2CCOCC2)S1 (stereo not shown) [Compound 21]
Liver damage index [1]: 1.4
p-GPT (plasma glutamic-pyruvic transaminase activity) [1]: 380 Karmen units

CCCCOC(=O)C(C(=O)OCCCC)=C1SCC(OC(=O)CN2CCOCC2)S1 (stereo not shown) [Compound 22]
Liver damage index [1]: 0.8
p-GPT (plasma glutamic-pyruvic transaminase activity) [1]: 134 Karmen units

CCOC(=O)C(C(=O)OCC)=C1SCC(OC(=O)CN2CCOCC2)S1 (stereo not shown) [Compound 23]
Liver damage index [1]: 0.8
p-GPT (plasma glutamic-pyruvic transaminase activity) [1]: 122 Karmen units

NC(=O)CCCCC1CCSS1 (stereo not shown) [Thioctic acid amide, reference compound]
Liver damage index [1]: 4.8
p-GPT (plasma glutamic-pyruvic transaminase activity) [1]: 763 Karmen units
